According to ChEMBL document CHEMBL5724696, “Autophagy assay results for EUbOPEN Chemogenomics Library” (2024):

Experiments:
Format in all cases: functional, Homo sapiens
U2OS [1] = assay: (§1) Here: values are normalized to the negative (DMSO; defined as 0% autophagy induction) and positive (250nM Torin1; mTOR inhibitor; defined as maximal inducer of autophagy = 100%) control compounds and represented as % of autophagy induction. […] The impact of autophagy induction on cells is complex and depends on the affected target. As such, the magnitude of a phenotype may not be equally mirrored in the %-value of autophagy induction and vice versa. The dynamics of the induction may indicate the mode of activation: e.g. activation via phosphorylation or a signaling cascade may occur fast, while activation via transcription factors may take considerably longer. […] Of note, treatment concentrations may be sub-optimal for specific compounds, leading to false negative annotations.; settings: Culturing Media DMEM, 1 % Penicillin/Streptomycin, 10% Fetal bovin serum Add-On: No, Screening Media Control DMEM, Screening Media Samples DMEM
TERT-RPE1 = assay: as §1; settings: Culturing Media DMEM/F12 (1:1), 1 % Penicillin/Streptomycin, 10% Fetal bovin serum Add-On: No, Screening Media Control DMEM/F12 (1:1), Screening Media Samples DMEM/F12 (1:1)
U2OS [2] = assay: as §1; settings: Culturing Media DMEM, 1 % Penicillin/Streptomycin, 10% Fetal bovin serum Add-On: No, Screening Media Control DMEM, Screening Media Samples DMEM; remark: listed apart in the source
[3] = Compound Concentration 0.5 uM, Timepoint 12 hours
[4] = Compound Concentration 0.5 uM, Timepoint 24 hours
[5] = Compound Concentration 0.5 uM, Timepoint 36 hours
[6] = Compound Concentration 0.5 uM, Timepoint 60 hours
[7] = Compound Concentration 2 uM, Timepoint 12 hours
[8] = Compound Concentration 2 uM, Timepoint 24 hours
[9] = Compound Concentration 2 uM, Timepoint 36 hours
[10] = Compound Concentration 2 uM, Timepoint 60 hours
[11] = Compound Concentration 10 uM, Timepoint 12 hours
[12] = Compound Concentration 10 uM, Timepoint 24 hours
[13] = Compound Concentration 10 uM, Timepoint 36 hours
[14] = Compound Concentration 10 uM, Timepoint 60 hours

Row | Compound | autophagy induction (U2OS [1]; [3]) [%] | autophagy induction (U2OS [1]; [4]) [%] | autophagy induction (U2OS [1]; [5]) [%] | autophagy induction (U2OS [1]; [6]) [%] | autophagy induction (U2OS [1]; [7]) [%] | autophagy induction (U2OS [1]; [8]) [%] | autophagy induction (U2OS [1]; [9]) [%] | autophagy induction (U2OS [1]; [10]) [%] | autophagy induction (U2OS [1]; [11]) [%] | autophagy induction (U2OS [1]; [12]) [%] | autophagy induction (U2OS [1]; [13]) [%] | autophagy induction (U2OS [1]; [14]) [%] | autophagy induction (TERT-RPE1; [3]) [%] | autophagy induction (TERT-RPE1; [4]) [%] | autophagy induction (TERT-RPE1; [5]) [%] | autophagy induction (TERT-RPE1; [6]) [%] | autophagy induction (TERT-RPE1; [7]) [%] | autophagy induction (TERT-RPE1; [8]) [%] | autophagy induction (TERT-RPE1; [9]) [%] | autophagy induction (TERT-RPE1; [10]) [%] | also measured
1 | Cc1nnn(-c2ccc(-c3ccc(C4(C(=O)O)CC4)cc3)cc2)c1NC(=O)O[C@H](C)c1ccccc1 | -1.478 | 0.2424 | -2.356 | -5.696 | 5.693 | 3.627 | 6.347 | 1.322 | 9.873 | 11.541 | 8.0313 | 1.41 | -8.995 | -11.6561 | -16.9316 | -15.4997 | -6.061 | -9.8231 | -13.2189 | 6.862 | autophagy induction (TERT-RPE1; [11]): 6.725%; autophagy induction (TERT-RPE1; [12]): 7.557%; autophagy induction (TERT-RPE1; [13]): 8.9017%; autophagy induction (TERT-RPE1; [14]): 33.5372%; autophagy induction (U2OS [2]; [3]): 2.665%; autophagy induction (U2OS [2]; [4]): 0.2559%; autophagy induction (U2OS [2]; [5]): -0.1373%; autophagy induction (U2OS [2]; [6]): 0.1457%; autophagy induction (U2OS [2]; [7]): 3.283%; autophagy induction (U2OS [2]; [8]): 0.4892%; autophagy induction (U2OS [2]; [9]): -0.1911%; autophagy induction (U2OS [2]; [10]): -0.4752%; autophagy induction (U2OS [2]; [11]): 8.52%; autophagy induction (U2OS [2]; [12]): 5.722%; autophagy induction (U2OS [2]; [13]): 2.388%; autophagy induction (U2OS [2]; [14]): 0.4676%
2 | CC(C)C[C@H](NC(=O)N1CCCCCC1)C(=O)N[C@H](Cc1cn(C)c2ccccc12)C(=O)N[C@H](Cc1ccccn1)C(=O)O | 4.132 | 4.485 | 3.039 | -0.6751 | 3.762 | 6.744 | 4.273 | 0.0386 | 4.084 | 1.596 | 3.219 | 5.8133 | -9.746 | -10.9738 | -11.345 | -17.0217 | -8.2266 | -8.649 | -10.3216 | -11.9295 | autophagy induction (TERT-RPE1; [11]): -4.458%; autophagy induction (TERT-RPE1; [12]): -5.829%; autophagy induction (TERT-RPE1; [13]): -9.562%; autophagy induction (TERT-RPE1; [14]): -13.6367%; autophagy induction (U2OS [2]; [3]): 0.2891%; autophagy induction (U2OS [2]; [4]): 0.184%; autophagy induction (U2OS [2]; [5]): -1.273%; autophagy induction (U2OS [2]; [6]): 0.7204%; autophagy induction (U2OS [2]; [7]): 2.596%; autophagy induction (U2OS [2]; [8]): 1.655%; autophagy induction (U2OS [2]; [9]): -0.3512%; autophagy induction (U2OS [2]; [10]): -0.2043%; autophagy induction (U2OS [2]; [11]): 5.448%; autophagy induction (U2OS [2]; [12]): 0.3648%; autophagy induction (U2OS [2]; [13]): -0.3169%; autophagy induction (U2OS [2]; [14]): 1.561%
3 | COC1CCN(c2cccc(-c3cc(NC(C)=O)nc(-n4nc(C)cc4C)n3)n2)CC1 | 34.4556 | 27.7724 | 24.8838 | 23.4921 | -5.934 | -0.6278 | -1.762 | -0.9306 | -4.754 | 3.79 | 9.047 | 19.3391 | -7.33 | -8.964 | -12.5665 | -12.2397 | -1.032 | 0.9672 | 2.277 | 7.2174 | autophagy induction (TERT-RPE1; [11]): 3.426%; autophagy induction (TERT-RPE1; [12]): 13.112%; autophagy induction (TERT-RPE1; [13]): 27.8595%; autophagy induction (TERT-RPE1; [14]): 52.8636%; autophagy induction (U2OS [2]; [3]): 2.5303%; autophagy induction (U2OS [2]; [4]): -0.8923%; autophagy induction (U2OS [2]; [5]): -0.9403%; autophagy induction (U2OS [2]; [6]): 0.4833%; autophagy induction (U2OS [2]; [7]): 5.065%; autophagy induction (U2OS [2]; [8]): 2.721%; autophagy induction (U2OS [2]; [9]): -0.07864%; autophagy induction (U2OS [2]; [10]): -0.6053%; autophagy induction (U2OS [2]; [11]): 7.172%; autophagy induction (U2OS [2]; [12]): -0.05151%; autophagy induction (U2OS [2]; [13]): 0.1867%; autophagy induction (U2OS [2]; [14]): -2.376%
